System: Sal-conjugated peptide-streptavidin complex
Assay: Competitive binding assay with biotin (fluorescence polarization)
Conditions: various concentrations of biotin; 20 nM peptide (4 pmol) and 15 μM streptavidin (3 nmol); 50 mM Tris-HCl, pH 8.0, 150 mM NaCl, 1 mM TCEP-NaOH
Method: (B) Competitive binding assay. Biotin as a competitor was mixed with the Sal-conjugated peptide-streptavidin complex.
Fluorescence polarization was measured with a HYBRID-3000ES (Photoscience, Tokyo, Japan) equipped with appropriate filters (Ex. 480 nm and Em. 535/40 nm). The Sal-conjugated fluorescent peptide (4 pmol) was incubated with various concentrations of streptavidin, NeutrAvidin, or bovine serum albumin (BSA) in tris-buffered saline (50 mM Tris-HCl, pH 8.0, 150 mM NaCl) supplemented with 1 mM TCEP-NaOH at 30 °C. Concentration of the fluorescent peptide was determined by absorption coefficient at 495 nm. NeutrAvidin® and BSA were purchased from Thermo Scientific and Nacalai tesque, respectively. Concentrations of streptavidin and NeutrAvidin were determined by absorption coefficient at 280 nm. Concentration of BSA was determined by Bradford protein assay (Bio-Rad). Klotz plot was generated by GraphPad Prism software 6.0 (GraphPad Software, San Diego, CA, USA), and the sigmoid curve was fitted with non-linear least squares analysis to obtain the dissociation constant. […] For the competitive binding assay, various concentrations of biotin were added to the solution containing Sal-conjugated peptide-streptavidin complex (4 pmol of the peptide and 3 nmol of streptavidin; 20 nM and 15 μM, respectively). Biotin was purchased from New England Biolabs (Ipswich, MA, USA).

Question: For `O=C(O)CCCC[C@@H]1SC[C@@H]2NC(=O)N[C@@H]21` [biotin], which “disruption of Sal-conjugated peptide-streptavidin interaction by biotin” value is on record?
Answer: fully disrupted
